Laboratory results reported in patent US4182896A, “Indane derivatives” (Societe Hexachimie, priority 1974, dated 1980).
Counter-ions that a name gives are not always drawn. Values belong to the compound of their own block, whether it stands above or below them.

Assays:
[1] = system: SPF male rats, OFA strain; assay: Anti-inflammatory activity: paw swelling after subcutaneous plantar injection of carraghenine, oral administration; type: in vivo; settings: Rattus norvegicus, po; for inhibition in vivo at 64 mg/kg: 64 mg/kg oral; for inhibition in vivo at 128 mg/kg: 128 mg/kg oral; for inhibition in vivo at 256 mg/kg: 256 mg/kg oral; for ED50: at the moment of greatest swelling of the controls, read-out: ED50 (50% effective dose), anti-inflammatory; for inhibition in vivo at 16 mg/kg: 16 mg/kg oral; for inhibition in vivo at 32 mg/kg: 32 mg/kg oral
Protocol: Anti-inflammatory activity
The products to be tested are administered orally to batches of 12 SPF male rats, OFA strain, weighing 120-130 g, 2 hours and 30 minutes (1/2 dose each time) before the subcutaneous plantar injection of 0.05 ml of a 1% strength solution of carraghenine. The volume of the back paw which received the phlogogenic agent is measured at regular intervals. The 50% effective dose is calculated at the moment of greatest swelling of the controls.
The results are given in Tables I to IV below, in which the percentage reduction in the inflammation is noted.

[2] = Solubility in water; type: physicochemical; settings: white powder, sodium salt
[3] = system: male mice (SPF1, OF1 strain); assay: Analgesic activity: inhibition of pain reactions (abdominal twistings) after intraperitoneal phenylbenzoquinone, oral administration; type: in vivo; settings: Mus musculus, po; for inhibition in vivo at 16 mg/kg: 16 mg/kg oral; for inhibition in vivo at 32 mg/kg: 32 mg/kg oral; for inhibition in vivo at 64 mg/kg: 64 mg/kg oral; for inhibition in vivo at 128 mg/kg: 128 mg/kg oral; for inhibition in vivo at 256 mg/kg: 256 mg/kg oral; for ED50: read-out: ED50 (50% effective dose), analgesic
Protocol: The products tested are administered orally to batches of 6 male mice (SPF1, OF1 strain) weighing 19-20 g.
1 hour later, 0.3 ml of a 0.02% strength solution of phenylbenzoquinone is injected intraperitoneally into each mouse and, from the 5th to the 10th minute after the latter treatment, the number of pain reactions (abdominal twistings) is counted.
Table V to VIII below give the percentage inhibition of these reactions.

[4] = carraghenine, read-out: percentage reduction in the inflammation
[5] = read-out: percentage inhibition of pain reactions

solubility in water [2]: soluble in water
SMILES: CC1CC(C)c2cc(C(C)C(=O)O)ccc21 (centres unmarked) [Example 6, Sodium salt of 2-methyl-[1,3-dimethyl-indanyl-(5)]-acetic acid]
inhibition in vivo at 64 mg/kg [1, 4]: 16%
inhibition in vivo at 128 mg/kg [1, 4]: 39%
inhibition in vivo at 256 mg/kg [1, 4]: 44%
ED50 [1]: > 256 mg/kg
inhibition in vivo at 16 mg/kg [3, 5]: 28%
inhibition in vivo at 32 mg/kg [3, 5]: 41%
inhibition in vivo at 64 mg/kg [3, 5]: 59%
inhibition in vivo at 128 mg/kg [3, 5]: 78%
inhibition in vivo at 256 mg/kg [3, 5]: 72%
ED50 [3]: 40 mg/kg

solubility in water [2]: soluble in water
SMILES: CC1Cc2ccc(C(C)C(=O)O)cc2C1 (centres unmarked) [Example 15, Sodium salt of 2-methyl-[2-methyl-indanyl-(5)]-acetic acid]
inhibition in vivo at 16 mg/kg [1, 4]: 11%
inhibition in vivo at 32 mg/kg [1, 4]: 20%
inhibition in vivo at 64 mg/kg [1, 4]: 27%
inhibition in vivo at 128 mg/kg [1, 4]: 41%
inhibition in vivo at 256 mg/kg [1, 4]: 68%
inhibition in vivo at 512 mg/kg ([1]; 512 mg/kg oral, carraghenine, read-out: percentage reduction in the inflammation): 72%
ED50 [1]: 160 mg/kg
inhibition in vivo at 8 mg/kg ([3]; 8 mg/kg oral, read-out: percentage inhibition of pain reactions): 14%
inhibition in vivo at 16 mg/kg [3, 5]: 18%
inhibition in vivo at 32 mg/kg [3, 5]: 68%
inhibition in vivo at 64 mg/kg [3, 5]: 91%
ED50 [3]: 23 mg/kg

solubility in water [2]: soluble in water
SMILES: CC(C(=O)O)c1ccc2c(c1)CC(C(C)C)C2 (centres unmarked) [Example 31, Sodium salt of 2-methyl-[2-isopropyl-indanyl-(5)]-acetic acid]

Further lines, the compound ahead of its results:

SMILES: CCC1Cc2ccc(C(C)CO)cc2C1 (stereo not drawn) [Example 34, 2-Methyl-β-[2-ethyl-indanyl-(5)]-ethanol]
inhibition in vivo at 16 mg/kg [1, 4]: 46%
inhibition in vivo at 32 mg/kg [1, 4]: 42%
inhibition in vivo at 64 mg/kg [1, 4]: 51%
inhibition in vivo at 128 mg/kg [1, 4]: 60%
inhibition in vivo at 256 mg/kg [1, 4]: 61%
ED50 [1]: 50 mg/kg
inhibition in vivo at 32 mg/kg [3, 5]: 12%
inhibition in vivo at 64 mg/kg [3, 5]: 22%
inhibition in vivo at 128 mg/kg [3, 5]: 60%
inhibition in vivo at 256 mg/kg [3, 5]: 94%
ED50 [3]: 95 mg/kg

SMILES: CC1Cc2ccc(CCO)cc2C1 (stereo not drawn) [Example 35, β-[2-Methyl-indanyl-(5)]-ethanol]
inhibition in vivo at 16 mg/kg [1, 4]: 43%
inhibition in vivo at 32 mg/kg [1, 4]: 42%
inhibition in vivo at 64 mg/kg [1, 4]: 56%
inhibition in vivo at 128 mg/kg [1, 4]: 76%
inhibition in vivo at 256 mg/kg [1, 4]: 89%
ED50 [1]: 35 mg/kg
inhibition in vivo at 32 mg/kg [3, 5]: 10%
inhibition in vivo at 64 mg/kg [3, 5]: 27%
inhibition in vivo at 128 mg/kg [3, 5]: 69%
inhibition in vivo at 256 mg/kg [3, 5]: 95%
ED50 [3]: 87 mg/kg

SMILES: CC(C)C1Cc2ccc(CCO)cc2C1 (stereo not drawn) [Example 37, β-[2-Isopropyl-indanyl-(5)]-ethanol]
inhibition in vivo at 16 mg/kg [1, 4]: 0%
inhibition in vivo at 32 mg/kg [1, 4]: 1%
inhibition in vivo at 64 mg/kg [1, 4]: 21%
inhibition in vivo at 128 mg/kg [1, 4]: 41%
inhibition in vivo at 256 mg/kg [1, 4]: 30%
ED50 [1]: > 256 mg/kg
inhibition in vivo at 16 mg/kg [3, 5]: 0%
inhibition in vivo at 32 mg/kg [3, 5]: 40%
inhibition in vivo at 64 mg/kg [3, 5]: 55%
inhibition in vivo at 128 mg/kg [3, 5]: 62%
inhibition in vivo at 256 mg/kg [3, 5]: 81%
ED50 [3]: 60 mg/kg
